Measurements: ChEMBL document CHEMBL1136197, “Anilinopyrazole as selective CDK2 inhibitors: design, synthesis, biological evaluation, and X-ray crystallographic analysis” (Bioorg Med Chem Lett, 2003)

Assays:
[1] = molecular target: Cyclin-dependent kinase 2 (Homo sapiens, UniProt P24941); experiment: In vitro inhibition of Cyclin-dependent kinase 2 was determined.
[2] = molecular target: Cyclin-dependent kinase 1 (Homo sapiens, UniProt P06493); experiment: Inhibition of Cyclin-dependent kinase 1
Sequence of Cyclin-dependent kinase 1 (P06493 whole entry): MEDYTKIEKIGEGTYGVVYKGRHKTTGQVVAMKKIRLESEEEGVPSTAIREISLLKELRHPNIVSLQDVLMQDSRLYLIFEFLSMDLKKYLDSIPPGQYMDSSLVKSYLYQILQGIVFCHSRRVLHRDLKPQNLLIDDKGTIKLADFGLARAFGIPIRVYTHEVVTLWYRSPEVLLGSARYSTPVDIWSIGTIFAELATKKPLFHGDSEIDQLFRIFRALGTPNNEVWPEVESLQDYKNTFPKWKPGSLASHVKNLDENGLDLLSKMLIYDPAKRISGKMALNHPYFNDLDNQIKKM

Row | SMILES | IC50 [1] [nM] | IC50 [2] [nM]
1 | NS(=O)(=O)c1ccc(Nc2cc(-c3cccc(N4CCOCC4)c3)n[nH]2)cc1 | 490 | 
2 | NS(=O)(=O)c1ccc(Nc2cc(-c3cccc(NS(=O)(=O)c4ccccc4)c3)n[nH]2)cc1 | 10.7 | 501
3 | COc1cccc(-c2cc(Nc3ccc(S(N)(=O)=O)cc3)[nH]n2)c1 | 24.5 | 398
4 | NS(=O)(=O)c1ccc(Nc2cc(-c3cccc(NC(=O)Nc4cc(C(F)(F)F)ccc4F)c3)n[nH]2)cc1 | 61.6 | 794
5 | NS(=O)(=O)c1cccc(Nc2cc(-c3ccc(F)cc3)n[nH]2)c1 | 871 | 
6 | CS(=O)(=O)Nc1ccc(Nc2cc(-c3cccc(Br)c3)n[nH]2)cc1 | 602 | 
7 | CS(=O)(=O)Nc1cccc(-c2cc(Nc3ccc(S(N)(=O)=O)cc3)[nH]n2)c1 | 10.7 | 501

Results, then the compound that gave them:

Row | IC50 [1] [nM] | IC50 [2] [nM] | SMILES
8 | 407 |  | COc1ccc(-c2cc(Nc3ccc(S(N)(=O)=O)cc3)[nH]n2)cc1F
9 | 23.4 |  | NS(=O)(=O)c1ccc(Nc2cc(-c3cccc(Br)c3)n[nH]2)cc1
10 | 17.4 |  | NS(=O)(=O)c1ccc(Nc2cc(-c3ccc(F)cc3)n[nH]2)cc1
11 | 0.33 |  | NS(=O)(=O)c1ccc(Nc2cc(-c3ccc([N+](=O)[O-])cc3)n[nH]2)cc1
12 | 166 |  | Nc1cccc(-c2cc(Nc3ccc(S(N)(=O)=O)cc3)[nH]n2)c1
13 | 10 | 126 | NS(=O)(=O)c1ccc(Nc2cc(-c3ccc(Br)cc3)n[nH]2)cc1
14 | 0.34 | 501 | Nc1ccc(-c2cc(Nc3ccc(S(N)(=O)=O)cc3)[nH]n2)cc1
15 | > 2000 |  | CN(C)c1ccc(-c2cc(Nc3ccc(S(N)(=O)=O)cc3)[nH]n2)cc1
16 | 9.1 | 398 | NS(=O)(=O)c1ccc(Nc2cc(-c3cccc(O)c3)n[nH]2)cc1 [GW831090X]
17 | 12.6 | 200 | NS(=O)(=O)c1ccc(Nc2cc(-c3ccc(O)c(F)c3)n[nH]2)cc1 [GW831091X]
